# Measured values from patent US11578013B2, “Nitrification inhibitors” (Lincoln University, priority 2020, dated 2023).
# Tests used:
# nitrification = assay: Table 1 summary: compounds found to work or not work as nitrification inhibitors, Inhib(%); set-up: concentration or dose not given beside the values; conditions: test and rate not given
# Description: The phenotypic screening involved assessing the nitrification inhibition potency of the selected 5000 compounds against a key ammonia oxidizing bacterium responsible for ammonia oxidation in the soil, Nitrosomonas europaea, in 96-well microtiter plates. N. europaea cells were grown in the presence of an ammonium source, and the potential of putative nitrification inhibitors to inhibit the production of nitrite (NO2) was measured relative to untreated cells.
# A summary of selected compounds initially found to either work or not work as nitrification inhibitors is detailed in Table 1 below.
# [1] = tested on: nitrification in the soil; assay: Laboratory soil incubation, Templeton sandy loam with synthetic cow urine, nitrate-N
# Description: A Templeton sandy loam was used in this experiment. 500 g of soil (dry weight basis) was packed into a pottle. 50 mL of synthetic cow urine with an N concentration of 7 g N/L (comprising about 87% urea-N and 13% glycine-N) was applied to the soil (equivalent to 700 kg N/ha on weight basis, assuming bulk density of 1 g/cm^3 in the top 10 cm of soil). The 700 kg N/ha application was used to simulate the urine-N application rate under a typical dairy cow urine patch in a grazed pasture.
# Control treatments also added to soil were: • urine alone (50 mL); • DMSO (equivalent to 0.9 mL/500 g soil)+urine (50 mL) to determine the effect of DMSO on nitrification rate; • water alone (50 mL) (simulating areas of the soil where no urine was deposited).
# Pottles were covered with lids with breathing holes to allow for gas exchange during incubation. Pottles were incubated at 12° C. Soil moisture content was maintained at field capacity by adjusting on weight basis twice a week.
# Soil samples were collected and were then thoroughly mixed and subsamples were extracted in a potassium chloride solution and analysed for mineral-N. Soil moisture content was also determined. Samples were taken at 30 days after the start of incubation. […]
# [2] = tested on: nitrification in the soil; assay: Soil column study with static gas chambers (Study 2-14): nitrate-N and N2O emissions
# Description: (§1) To determine the effect of treating the soil with 4-Ethynylanisole on nitrification rate and nitrous oxide emissions, soil column studies with static gas chambers were conducted. The experiment was conducted in cylindrical PVC containers (Diameter=186 mm, Height=240 mm). The containers were filled with soil to half of the container's height (120 mm), leaving 120 mm headspace. The soil was Templeton sandy loam collected from Lincoln University Research Dairy Farm. It was screened using a 5 mm sieve and air-dried to the required moisture level and packed to bulk density of 1 g/cm3.
# (§2) The experiment was conducted under controlled conditions. The temperature of the soil columns were maintained at around 12° C. by using a water bath to control the temperature.
# The treatments included Control (Water), Control (animal urine), Control (urine+DMSO), Control (urine+DCD at 10 kg/ha) and urine+4-Ethynylanisole (10 kg/ha) in DMSO. Synthetic cow urine was applied at 700 kg N/ha (comprising about 87% urea-N and 13% glycine-N), and 4-Ethynylanisole was applied at 10 kg/ha. There were two sets of cores for each treatment, one set were fitted with static gas chambers with removable lids for nitrous oxide sampling, and the other set used for soil sampling. The urine was sprayed to the surface of the soil simulating urine deposition by a grazing animal; DMSO, or DCD or 4-Ethynylanisole mixed with DMSO was also sprayed onto the urine treated soils to simulate the treatment of urine patches. Nitrous oxide gas measurements followed these treatments—as is detailed further below.
# For the soil columns that were set up for taking soil samples for analysis of mineral nitrogen, the different treatments were mixed with the soil for soil sampling. Soil moisture was adjusted to 100% field capacity (FC) and maintained between 80 and 100% FC over the duration of the experiment.
# Nitrous oxide (N2O) gas sampling was conducted twice a week using the standard procedure (Di et al., 2007). Vials were evacuated prior to sampling. Three gas samples were taken with 20 minute intervals between each sampling. Sampling frequency was reduced to once a week when N2O fluxes decreased in intensity.
# Soil sampling was conducted on Day 1, 7, 14, 30, and 60. The soil samples were analysed for mineral nitrogen.
# [3] = tested on: nitrification in the soil; assay: Soil column study at low rates (Study 3-14): nitrate-N; conditions: day 60
# Description: as §1, with “at low rates, e.g. at 1 kg/ha” for “on nitrification rate”, “2 kg/ha,” for “nitrous oxide emissions,”, “studies” for “studies with static gas chambers”
# as §2
# The treatments included Control (Water), Control (animal urine), Control (urine+DMSO), Control (Urine+DCD at 10 kg/ha), Urine+4-Ethynylanisole (at 1 kg/ha) in DMSO, and Urine+4-Ethynylanisole (at 2 kg/ha) in DMSO. Synthetic cow urine was applied at 700 kg N/ha (comprising about 87% urea-N and 13% glycine-N), and 4-Ethynylanisole was applied at 1 or 2 kg/ha equivalent. The treatments were mixed with the soil. Soil moisture was adjusted to 100% field capacity (FC) and maintained between 80 and 100% FC over the duration of the experiment. Soil sampling was conducted on Days 1, 7, 14, 30, and 60. The soil samples were analysed for mineral N.
# Bacillus subtilis = assay: Antimicrobial susceptibility testing (MIC plate); format: cell-based; conditions: at concentrations used in soil to inhibit nitrification
# Description: (§3) To determine if 4-Ethynylanisole specifically targets the ammonium oxidizing bacterium N. europaea we examined the antimicrobial properties of 4-Ethynylanisole against selected bacterial species. Bacteria were routinely grown in Lysogeny broth (LB) (E. coli and B. subtilis), LB-Tween (M. smegmatis), or Rhizobium defined media (G RDM) (M. loti […]). E. coli, B. subtilis, and M. smegmatis were grown overnight (18 hr) at 37° C. with shaking (200 rpm), whereas M. loti […] was grown for 48 hr statically at 28° C. 96-well microtiter plates used for the antimicrobial susceptibility testing were set up as follows; 200 μl of media (or as appropriate) was added to column […]) and 100 μl of media was added to the remaining wells of a polystyrene 96 well plate. 4-Ethynylanisole was added to column 1 at a concentration of 512 μM (or as required) and serially diluted 2-fold (100 μl transfer) into the neighbouring wells, making sure to discard 100 μl from the last well. Thus, resulting in a serial dilution of each compound. […] Plates were incubated at either 37° C., or 28° C. (with shaking as required) for 18-48 hr before determining the MIC.
# Escherichia coli = assay: Antimicrobial susceptibility testing (MIC plate); format: cell-based; conditions: at concentrations used in soil to inhibit nitrification
# Description: as §3
# Mesorhizobium loti R7A = assay: Antimicrobial susceptibility testing (MIC plate); format: cell-based; conditions: at concentrations used in soil to inhibit nitrification
# Description: as §3
# Mycobacterium smegmatis = assay: Antimicrobial susceptibility testing (MIC plate); format: cell-based; conditions: at concentrations used in soil to inhibit nitrification
# Description: as §3
smiles,measurement,setting,value
"C#Cc1ccc(OC)cc1 [4-Ethynylanisole, 1-ethynyl-4-methoxybenzene]",Inhib(%),nitrification,100%
same,nitrate-N concentration in the soil compared with urine alone,"[1]; Study 1-14, 2 to 20 kg/ha, day 30",significantly lower nitrate-N concentrations
same,soil nitrate-N concentration changes with time,"[1]; Study 1-14, range of rates 2, 5, 10, 20 kg/ha, days 1, 14, 30",significant inhibition of nitrate production
same,N2O—N emissions lower than urine alone control,"[2]; 10 kg/ha sprayed to soil surface, soil column",93.3%
same,soil nitrate-N concentration compared with urine control,"[2]; 10 kg/ha, day 60",significantly lower nitrate-N concentrations
same,nitrous oxide reduction compared with DCD,[2]; both at 10 kg/ha,much greater than that by DCD
same,inhibiting nitrate production compared with DCD,"[2]; both at 10 kg/ha, day 60",much more potent than DCD
same,inhibiting nitrate production compared with DCD,[3]; 1 or 2 kg/ha vs DCD at 10 kg/ha,much more potent than DCD
same,soil nitrate-N concentration compared with urine control,[3]; 1 or 2 kg/ha,significantly lower nitrate-N concentrations
same,inhibition of bacterial growth,Bacillus subtilis,did not inhibit
same,inhibition of bacterial growth,Escherichia coli,did not inhibit
same,inhibition of bacterial growth,Mesorhizobium loti R7A,did not inhibit
same,inhibition of bacterial growth,Mycobacterium smegmatis,did not inhibit
